Consider twelve molecules from US20260159499A1, “COMPOUND AS FAK INHIBITOR AND USE THEREOF” (WIGEN BIOMEDICINE TECHNOLOGY (SHANGHAI) CO., LTD., priority 2021, published 2026).

SMILES strings stand for the structures. Where only a bound is given, the exact number is not on record here.

In data set [1] the test system is PC3 cells. The data set is described as follows: PC3 cell proliferation, 2D activity detection. Type of data set: cell-based, human. The following applies: Homo sapiens, PC-3, PC3, 2D, 72 h, read-out: 2D IC50 against PC3 cells. Here is the method: 2D activity detection: 1200 PC3 cells were seeded in a 96-well plate. After overnight adherence culture, the compound serially diluted was added. 72 h after addition, Cell Titer-Lumi (Beyotime C0068XL) was added to measure the ATP content in the cells. The growth of the cells was evaluated, and IC50 of the compounds against cell growth was calculated.

The subject of data set [2] is PC3 cells. The data set is described as follows: Inhibition of PC3 cell adherence. Type of data set: cell-based. As to conditions: Homo sapiens, PC-3; PC3, 4 h treatment; read-out: Inhibitory activity against PC-3 cell adherence IC50. As for the experimental part:
PC3 cells were added at 8000 cells/well. 4 h after the cells were treated with the compound, the number of adherent cells was counted. The inhibition percentages and IC50 of the compounds were calculated compared to the DMSO group.

Data set [3] concerns PC3 cells. The data set is described as follows: PC3 cell proliferation, 3D activity detection. It counts as cell-based, human. The following applies: Homo sapiens, PC-3, 336 h, PC3, 3D culture, 14 days, read-out: 3D IC50 against PC3 cells. As for the experimental part: 3D activity detection: PC3 cells were seeded in a 96-well plate at 1200 cells/well, and 3D culture was performed. 14 days after the compound serially diluted was added, the growth of the cells was determined. The inhibition percentage and IC50 of the compound were calculated compared to the DMSO control group.

Data set [4] has as its target FAK recombinant protein (Homo sapiens, UniProt Q05397). The data set is described as follows: Inhibitory activity against FAK enzyme. It counts as biochemical. The following applies: TK substrate, ATP. The method, boiled down: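 Compound preincubated with FAK recombinant protein 10 min at room temperature, then biotin-labeled TK substrate and ATP added and incubated 1 h at room temperature.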

For data set [5], the system named is Mouse colon cancer MC38 cells. The data set is described as follows: In vivo efficacy experiment in MC38 model. Details: species or system BALB/c mice. As to conditions: single drug 50 mg/kg, PO, QD (21 days). As for the experimental part:
The BALB/c mice were subcutaneously injected with 1×10^6 MC38 cells on the right side to form tumors. […] The administration was then started. Tumor volumes were measured with a caliper on day 3, day 7, day 10, day 14, day 17 and day 21 after the administration.

Data set [6] is described as follows: In vivo pharmacokinetic experiment in mice. Details: species or system CD-1 female mice. The following applies: CD-1 mice. As for the experimental part:
On the day of the experiment, animals in the intravenous group were administered the corresponding compound by single injection via the tail vein at an administration volume of 10 mL/kg, and animals in the oral group were administered the corresponding compound by single intragastric injection at an administration volume of 10 mL/kg. The animals were weighed before administration, and the administration volume was calculated according to the body weight. […] About 200 μL of whole blood was collected through the orbital venous plexus at each time point and used to prepare plasma for concentration determination by high-performance liquid chromatography-tandem mass spectrometry (LC-MS/MS). The plasma concentrations were processed using a non-compartmental model of Winnolin pharmacokinetic software, and the pharmacokinetic parameters were calculated using a linear-log trapezoidal method.

Data set [7] relates to Human prostatic cancer PC3 cells. The data set is described as follows: In vivo efficacy test in PC-3 model. Details: species or system BALB/c nude mice. The following applies: 25 mg/kg, PO, QD (21 days).
Method: Female BALB/c nude mice (aged 6 weeks, 18-22 g) were provided by Vital River Laboratory Animal Technology Co., Ltd. (China) and used one week after quarantine and acclimation. All animals were kept in a room at 23±2° C. with a relative humidity of 50±5%, artificial lighting was provided from 08:00 to 20:00 every day, and the air was exchanged 13-18 times per hour.
After being subcultured, the cells were collected when they reached the desired amount. 1×10^7 PC3 cells were injected into the left dorsal side of each nude mouse, and the animals were randomly grouped for administration after tumors grew to 100-200 mm^3. The mice in the solvent control group were intragastrically administered 0.5% MC-Tween-80 twice a day; the mice in the compound groups were intragastrically administered 0.5% MC-Tween-80 suspension once a day. On Tuesday and Thursday each week, tumor volumes and body weight of the mice were measured, and the nude mice were sacrificed on day 21 after the administration.
(§1) The toxicity of the compounds was evaluated according to the body weight of the mice.
The subject of data set [8] is Human pancreatic cancer Mia PaCa-2 cells. The data set is described as follows: In vivo efficacy test in MiaPaCa-2 model. The following applies: 25 mg/kg, PO, QD (21 days).
Method: After being subcultured, the cells were collected when they reached the desired amount. 1×10^7 Mia PaCa-2 cells were injected into the left dorsal side of each nude mouse, and the animals were randomly grouped for administration after tumors grew to 100-200 mm^3. The mice in the solvent control group were intragastrically administered 0.5% MC-Tween-80 twice a day; the mice in the compound groups were intragastrically administered 0.5% MC-Tween-80 suspension once a day. On Tuesday and Thursday each week, tumor volumes and body weight of the mice were measured, and the nude mice were sacrificed on day 21 after the administration.
as §1
Where [9] appears, read: female, mouse, plasma, injection (IV) 1 mg/kg (footnote).
[10] abbreviates: female, mouse, plasma, oral administration 10 mg/kg.

Chain of FAK recombinant protein (Q05397 whole entry, species assumed): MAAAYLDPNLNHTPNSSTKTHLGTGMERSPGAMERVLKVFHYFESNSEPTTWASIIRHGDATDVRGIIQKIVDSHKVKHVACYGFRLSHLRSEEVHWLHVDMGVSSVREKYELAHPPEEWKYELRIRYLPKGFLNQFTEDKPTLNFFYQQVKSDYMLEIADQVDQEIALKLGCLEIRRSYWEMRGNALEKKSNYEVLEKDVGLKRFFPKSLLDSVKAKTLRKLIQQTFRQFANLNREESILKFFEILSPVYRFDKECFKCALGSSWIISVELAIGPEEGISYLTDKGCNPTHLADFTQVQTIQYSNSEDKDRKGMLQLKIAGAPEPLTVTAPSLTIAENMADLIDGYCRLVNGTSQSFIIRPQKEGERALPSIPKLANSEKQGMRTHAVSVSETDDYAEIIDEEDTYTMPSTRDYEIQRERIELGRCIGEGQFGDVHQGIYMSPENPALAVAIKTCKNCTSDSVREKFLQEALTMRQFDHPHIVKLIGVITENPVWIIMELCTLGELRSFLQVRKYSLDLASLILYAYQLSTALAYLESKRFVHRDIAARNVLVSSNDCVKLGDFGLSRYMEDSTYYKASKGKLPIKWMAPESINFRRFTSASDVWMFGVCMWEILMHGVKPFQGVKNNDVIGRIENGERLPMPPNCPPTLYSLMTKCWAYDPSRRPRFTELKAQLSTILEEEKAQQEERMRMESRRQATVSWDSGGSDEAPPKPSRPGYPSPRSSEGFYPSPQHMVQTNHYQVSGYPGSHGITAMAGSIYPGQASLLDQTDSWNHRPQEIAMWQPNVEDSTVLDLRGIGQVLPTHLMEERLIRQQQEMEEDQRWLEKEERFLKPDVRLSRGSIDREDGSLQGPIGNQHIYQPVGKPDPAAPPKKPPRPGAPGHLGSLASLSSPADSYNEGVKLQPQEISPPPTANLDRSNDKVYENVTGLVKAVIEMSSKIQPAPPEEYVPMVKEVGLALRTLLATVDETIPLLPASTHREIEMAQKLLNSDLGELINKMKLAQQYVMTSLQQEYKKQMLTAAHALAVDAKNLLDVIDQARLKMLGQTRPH

As a reminder, the IC50 is the concentration at which inhibition is half-maximal. With `COc1cc(N2CC3(CCN(C)C3)OC2=O)c(F)cc1Nc1ncc(C(F)(F)F)c(Oc2cccc3c2C(=O)N(C)C3)n1` (stereo not shown) [Compound 64], the IC50 in data set [1] (class symbol) was greater than 2000 nM; in data set [2] it was 3.33 nM; in data set [3] (class symbol) it was 5 to 50 nM; in data set [4], less than 10 nM.
On the same counts, the results for `COc1cc(N2CC3(CCN(C)C3)OCC2=O)c(F)cc1Nc1ncc(C(F)(F)F)c(Oc2cccc3c2C(=O)N(C)C3)n1` (stereo not shown) [Compound 66] are greater than 2000 nM, 7.01 nM, greater than 50 nM and less than 10 nM.
For orientation: AUC(0-t) means exposure summed from dosing to a finite time, without extrapolation to infinity. A higher AUC(0-t) goes with more exposure. For orientation: clearance means the volume of plasma or blood freed of the substance per unit of time. Read a low clearance as a low capacity for elimination. In general, half-life refers to the time needed for the level to fall by half in the phase considered. The low end stands for rapid decline, the high end for slow decline. One may read the Cmax as the highest concentration seen after dosing. As usually defined, the Tmax is the time at which the peak concentration occurs. Usually bioavailability stands for dose-corrected exposure relative to a reference, in per cent. Take `COc1cc(N2CC3(CCN(C)CC3)C2)ccc1Nc1ncc(C(F)(F)F)c(Oc2cccc3c2C(=O)N(C)C3)n1` [Compound 90, 7-((2-((2-methoxy-4-(7-methyl-2,7-diazaspiro[3.5]non-2-yl)phenyl)amino)-5-(trifluoromethyl)pyrimidin-4-yl)oxy)-2-methylisoindolin-1-one]: the half-maximal inhibitory concentration (IC50) is greater than 10000 nM in data set [1] (numeric), 1.86 nM in data set [2], 0.8 nM in data set [3] (numeric (mean where marked *)) and less than 10 nM in data set [4]. The figures for the “Change in body weight” value in data set [5], in data set [7] and in data set [8] were “+13.54%”, −0.5% and “+3.67%”, respectively. The results for the “TGI (%)” value in data set [5], in data set [7] and in data set [8] were 59.02%, 81.65% and 83.72%, respectively. Moreover, the “oral bioavailability and oral absorption properties (in words)” value in data set [6] (oral 10 mg/kg) is “good oral bioavailability and good oral absorption properties”. Besides, the AUC(0-t) in data set [6] (setting [9]) amounted to 812 ng·h/mL; in data set [6] (setting [10]), 7460 ng·h/mL. In data set [6] (setting [9]), the clearance was 20.5 mL/min/kg. In addition, the half-life was 3.08 h in data set [6] (setting [9]) and 2.82 h in data set [6] (setting [10]). In addition, the Vd in data set [6] (female, mouse, plasma, injection (IV) 1 mg/kg (footnote), read-out: Vdss) was determined as 5.34 L/kg. In data set [6] (setting [10]), this molecule registered a Cmax of 635 ng/mL. Moreover, the Tmax in data set [6] (setting [10]) was 4 h. The same molecule yielded a bioavailability in data set [6] (female, mouse, plasma, oral administration 10 mg/kg vs injection) of 92%.
On to `COc1cc(N2CCC3(CC2)CN(C)C3)ccc1Nc1ncc(C(F)(F)F)c(Oc2cccc3c2C(=O)N(C)C3)n1` [Compound 92], for which the IC50 in data set [1] (numeric) was greater than 10000 nM; in data set [2] it was 3.05 nM; in data set [3] (numeric (mean where marked *)) it was 0.83 nM; in data set [4], less than 10 nM.
On to `COc1cc(N2CCC3(CCN(C)CC3)CC2)ccc1Nc1ncc(C(F)(F)F)c(Oc2cccc3c2C(=O)N(C)C3)n1` [Compound 94], for which the IC50 in data set [1] (class symbol) is greater than 2000 nM; in data set [2], 2.58 nM; in data set [3] (class symbol), less than 5 nM; in data set [4] it was less than 10 nM.
For the molecule `COc1cc(N2CC3(CCN(C)CC3)C2)ccc1Nc1ncc(C(F)(F)F)c(Oc2cccc3c2C(=O)N(C)C3C)n1` (stereo not shown) [Compound 100], the IC50 is greater than 2000 nM in data set [1] (class symbol), 1.33 nM in data set [2], 2.22 nM in data set [3] (numeric (mean where marked *)) and less than 10 nM in data set [4].
Taken in the same sequence, the figures for `COc1cc(N2CC3(CCN(C)CC3)C2)ccc1Nc1ncc(C(F)(F)F)c(Oc2cccc3c2C(=O)N(C)C3(C)C)n1` [Compound 101] were greater than 2000 nM, 2.26 nM, 4.86 nM and less than 10 nM.
On to `COc1cc(N2CC3(CCNCC3)C2)ccc1Nc1ncc(C(F)(F)F)c(Oc2cccc3c2C(=O)N(C)C3)n1` [Compound 102], for which the IC50 in data set [1] (class symbol) was greater than 2000 nM; in data set [2] it was 3.01 nM; in data set [3] (class symbol) it was less than 5 nM; in data set [4], less than 10 nM.
Turning to `COc1cc(N2CC3(CCN(C)CC3)C2)ccc1Nc1ncc(Cl)c(Oc2cccc3c2C(=O)N(C)C3)n1` [Compound 111], the IC50 in data set [1] (class symbol) was greater than 2000 nM; in data set [2], 1.62 nM; in data set [3] (numeric (mean where marked *)) it was 1.78 nM; in data set [4], less than 10 nM. Besides, the “Change in body weight” value in data set [5] is given as “+21.07%”; in data set [7], −1.4%; in data set [8], “+6.08%”. Also, the “TGI (%)” value is on record as 47.67% in data set [5], 87.4% in data set [7] and 82.32% in data set [8].
In the case of `COc1cc(N2CC3(CCN(C)CC3)C2)ccc1Nc1ncc(Br)c(Oc2cccc3c2C(=O)N(C)C3)n1` [Compound 112], the IC50 in data set [1] (class symbol) is greater than 2000 nM; in data set [2] it was 0.93 nM; in data set [3] (numeric (mean where marked *)) it was 0.66 nM; in data set [4], less than 10 nM.
Taken in the same sequence, the figures for `COc1cc(N2CC3(CCN(C)CC3)C2)ccc1Nc1ncc(C#N)c(Oc2cccc3c2C(=O)N(C)C3)n1` [Compound 113] were greater than 2000 nM, 3.56 nM, 1.58 nM and less than 10 nM.
Regarding `COc1cc(N2CC3(CCN(C)CC3)C2)ccc1Nc1ncc([N+](=O)[O-])c(Oc2cccc3c2C(=O)N(C)C3)n1` [Compound 114], the IC50 in data set [1] (class symbol) is greater than 2000 nM; in data set [2] it was 2.63 nM; in data set [3] (class symbol), less than 5 nM; in data set [4], less than 10 nM.
